Results as given in paper PMC11477000, “Enantioselective Binding of Proton Pump Inhibitors to Alpha1-Acid Glycoprotein and Human Serum Albumin—A Chromatographic, Spectroscopic, and In Silico Study” (International Journal of Molecular Sciences, 2024).

Key:
[1] = molecular target: T1, human serum albumin (HSA) (Homo sapiens, UniProt P02768); experiment: HPLC on HSA-based chiral stationary phase (Daicel Chiralpak HSA column); type: binding; conditions: based on the elution order of enantiomers on the HSA column
T1 sequence (P02768 25-609): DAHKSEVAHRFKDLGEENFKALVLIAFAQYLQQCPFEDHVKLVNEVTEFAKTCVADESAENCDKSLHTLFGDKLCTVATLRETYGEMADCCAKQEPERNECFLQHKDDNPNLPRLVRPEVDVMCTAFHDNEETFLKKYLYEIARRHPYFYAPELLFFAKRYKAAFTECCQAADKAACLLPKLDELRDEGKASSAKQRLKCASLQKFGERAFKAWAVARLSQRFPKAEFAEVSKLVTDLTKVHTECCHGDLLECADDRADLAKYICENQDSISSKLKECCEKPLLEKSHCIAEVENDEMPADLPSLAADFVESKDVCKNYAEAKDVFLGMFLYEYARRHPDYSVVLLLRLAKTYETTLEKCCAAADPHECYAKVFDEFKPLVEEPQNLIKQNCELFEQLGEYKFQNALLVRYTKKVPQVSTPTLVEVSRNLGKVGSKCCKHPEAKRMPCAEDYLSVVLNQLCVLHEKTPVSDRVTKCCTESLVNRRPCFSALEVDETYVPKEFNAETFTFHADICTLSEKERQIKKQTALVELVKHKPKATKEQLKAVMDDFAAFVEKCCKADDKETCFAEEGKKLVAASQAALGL
Procedure: HPLC using a protein-based chiral stationary phase is a fully automated method for obtaining rapid information about the binding of compounds to the respective proteins. Enantioseparation occurs in the case of unequal binding constants of the individual enantiomers to the immobilized proteins, thus allowing enantioselective binding to be characterized even when a racemic mixture was injected. As a preliminary step, the enantiospecific binding was investigated on columns containing AGP and HSA in various alcohol:buffer mixtures. A pH 7 phosphate buffer was employed as the aqueous part of the mobile phase, while for the organic part, three different alcohols were evaluated.
In the following step, we investigated the effect of changing some other chromatographic conditions on the protein binding. The pH of the aqueous phase influenced the protonation state of both the analyte and the proteins. It should be noted that the pH tolerance of protein-based columns is narrow due to the possible denaturation of proteins. Taking into account the guidelines of the manufacturer, three different pH values were investigated (pH 6, 6.5, and 7) at a 95:5 (v/v%) buffer:IPA eluents ratio [49]. The buffer was uniformly 10 mM phosphate. […] The effect of different buffer constituents was also evaluated. In addition to phosphate buffer, ammonium acetate, ammonium bicarbonate, and sodium citrate were tested and compared under the same conditions.
Chromatographic measurements were carried out on two separate HPLC systems. The AGP binding study was performed on a Waters 2695e chromatographic system paired with a Waters 2996 PDA detector, controlled by Empower 3 FR5 (Waters Corp., Milford, MA, USA), while the HSA binding study was performed on an Agilent 1100 HPLC system, consisting of an inline degasser (G1322A), a quaternary pump (G1311A), an automatic injector (G1329A) paired with sample thermostat (G1330A), a column thermostat (G1316A), and a diode array detector (G1315A) with Agilent Chemstation B04.03-SP2 software (Agilent, Bronnwald, Germany). For the binding studies, two protein-based chiral stationary phases were utilized. The chromatographic binding study for AGP was conducted on a ChromTech Chiral-AGP column (150 mm × 4.0 mm; ChromTech Ltd., Congleton, UK), while the binding study for HSA was performed on a Daicel Chiralpak HSA column (50 mm × 4.0 mm; Daicel Corp., Osaka, Japan). The detection wavelength was 210 nm for all measurements. The stock solutions of PPIs were prepared at a concentration of 1 mg/mL in MeOH. Subsequent dilutions were prepared using water. The injected samples were mixed and diluted from the stock solutions. The final concentration for the eutomer was 0.2 mg/mL, and for the distomer, it was 0.1 mg/mL. A volume of 2 μL was injected. To mitigate the instability of PPIs in aqueous solutions, the samples were kept at a temperature of 4 °C.

AGP = experiment: UV titration (Benesi–Hildebrand) with AGP; type: binding, human; conditions: human, pH 7.4, UV titration, n = 3; 1 μM AGP, pH 7.4 phosphate buffer, 24 °C, 278 nm; read-out: logKAGP ± Stdev (logarithm of stability constant) (converted)
Procedure: The UV-Vis absorption assay is a straightforward and relatively simple method to examine the interactions between small molecules and macromolecules. Changes in the structure of the protein caused by the interacting ligand can lead to alterations in the absorption spectrum. […] Fixed wavelength measurements were conducted at the absorption maxima of AGP and HSA. […] The change in the absorbance and wavelength maximum in the UV spectra during the titration refers to the complex formation between proteins and PPIs. The Benesi–Hildebrand method was used to determine the stability constants based on Equation (7).
The absorption spectra were recorded on a Jasco V-750 spectrophotometer (Jasco, Tokyo, Japan) at 24 °C using 1.0 cm path-length quartz cuvettes. Then, 1 μM HSA and AGP were dissolved in a sodium phosphate buffer solution (pH 7.4; 0.1 M) and their concentration was kept constant. The PPIs were dissolved in DMSO, and further diluted with the AGP or HSA solution. Next, 1000 μL of 1 μM HSA and AGP solutions was titrated with the PPI stock solution in 1 μL steps. The concentration of the PPIs was set to 4.00, 7.98, 11.96, 15.94, 19.90, 23.86, 27.81, and 31.75 μM. The binding constants were determined using the Benesi–Hildebrand equation:(7) A0/A−A0=εPPI/εAPPI−εPPI+εPPI/εAPPI−εPPI×1/K×[C] where A0 is the absorbance of the HSA or AGP at 278 nm, A is the absorbance of the formed complex also at 278 nm, εPPI is the extinction coefficient of the actual PPI, εAPPI is the extinction coefficient of the albumin or AGP and PPI complex, K is the binding coefficient, and [C] is the concentration of the investigated PPI. The plot of A0/A − A0 versus C^−1 has a slope of K^−1. All experiments were performed in triplicate.

[2] = molecular target: T1, human serum albumin (HSA); experiment: Displacement chromatography on HSA column with warfarin and ibuprofen as competitors; type: binding; conditions: IPA:10 mM pH 7 phosphate buffer 1:99, 25 °C
Procedure: For identification of the binding site of HSA, a displacement chromatography and fluorescence displacement study were performed. In the case of chromatography, to the mobile phase, increasing concentrations of the competitors, warfarin and ibuprofen, that are known to bind to specific binding sites on HSA, Sudlow site I and Sudlow site II, respectively, were added. In the case of the fluorescence displacement study, the fluorescence quenching data of the PPI-HSA system in the presence of warfarin and ibuprofen were investigated.
(Chromatographic parameter: Column temperature: 25 °C,
mobile phase: IPA : 10 mM pH 7 sodium phosphate buffer 1:99, flow rate: 0.7 mL/min, detection

**Q.** With `Cc1c(OCC(F)(F)F)ccnc1C[S@+]([O-])c1nc2ccccc2[nH]1` [S-lansoprazole] as the compound, how does the “Affinity to HSA compared to the antipode” value [1] read?
**A.** higher affinity

**Q.** What about the Kd (AGP) of the same compound?
**A.** 14.8 µM

**Q.** And the k retention factor ([2]; ibuprofen 0 mM)?
**A.** 11.17

**Q.** And the k retention factor ([2]; ibuprofen 0.01 mM)?
**A.** 9.81

**Q.** And the k retention factor ([2]; ibuprofen 0.05 mM)?
**A.** 8.51

**Q.** What about the k retention factor ([2]; ibuprofen 0.1 mM) of the same compound?
**A.** 7.60

**Q.** What about the k retention factor ([2]; warfarin 0 mM) of the same compound?
**A.** 11.17

**Q.** And the k retention factor ([2]; warfarin 0.01 mM)?
**A.** 9.03

**Q.** And the k retention factor ([2]; warfarin 0.05 mM)?
**A.** 8.13

**Q.** What about the k retention factor ([2]; warfarin 0.1 mM) of the same compound?
**A.** 7.44

**Q.** With `Cc1c(OCC(F)(F)F)ccnc1C[S@@+]([O-])c1nc2ccccc2[nH]1` [R-lansoprazole, dexlansoprazole] as the compound, how does the Kd (AGP) read?
**A.** 27.5 µM

**Q.** And the k retention factor ([2]; ibuprofen 0 mM)?
**A.** 18.27

**Q.** What about the k retention factor ([2]; ibuprofen 0.01 mM) of the same compound?
**A.** 13.98

**Q.** And the k retention factor ([2]; ibuprofen 0.05 mM)?
**A.** 10.41

**Q.** And the k retention factor ([2]; ibuprofen 0.1 mM)?
**A.** 7.60

**Q.** And the k retention factor ([2]; warfarin 0 mM)?
**A.** 18.27

**Q.** What about the k retention factor ([2]; warfarin 0.01 mM) of the same compound?
**A.** 14.84

**Q.** And the k retention factor ([2]; warfarin 0.05 mM)?
**A.** 12.07

**Q.** And the k retention factor ([2]; warfarin 0.1 mM)?
**A.** 10.51
